Data set [1] concerns the target 5-hydroxytryptamine receptor 2B (Homo sapiens, UniProt P41595). The format is cell membranes, CHO-K1, Membrane. The following applies: for Ki: read-out: Ki. For all read-outs here: in other assays of this panel Not Active means under 50% inhibition at 10 µM.
The target in data set [2] is C-C chemokine receptor type 2 (Homo sapiens, UniProt P41597). The format is cell membranes, CHO-K1, Membrane. Note: in other assays of this panel Not Active means under 50% inhibition at 10 µM.
A short description of data set [3]: DRUGMATRIX: Glutamate, AMPA radioligand binding (ligand: [3H] AMPA). In kind it is cell membranes, Rattus norvegicus, Wistar, Cerebral cortex, Membrane. The following applies: Not Active = under 50% inhibition at 10 µM.
A further data set has as its target T1, Interstitial collagenase (Homo sapiens, UniProt P03956).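 Note: MMP-1 enzyme inhibition assay using a peptide substrate; in other assays of this panel Not Active means under 50% inhibition at 10 µM.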
T1 sequence (P03956 whole entry): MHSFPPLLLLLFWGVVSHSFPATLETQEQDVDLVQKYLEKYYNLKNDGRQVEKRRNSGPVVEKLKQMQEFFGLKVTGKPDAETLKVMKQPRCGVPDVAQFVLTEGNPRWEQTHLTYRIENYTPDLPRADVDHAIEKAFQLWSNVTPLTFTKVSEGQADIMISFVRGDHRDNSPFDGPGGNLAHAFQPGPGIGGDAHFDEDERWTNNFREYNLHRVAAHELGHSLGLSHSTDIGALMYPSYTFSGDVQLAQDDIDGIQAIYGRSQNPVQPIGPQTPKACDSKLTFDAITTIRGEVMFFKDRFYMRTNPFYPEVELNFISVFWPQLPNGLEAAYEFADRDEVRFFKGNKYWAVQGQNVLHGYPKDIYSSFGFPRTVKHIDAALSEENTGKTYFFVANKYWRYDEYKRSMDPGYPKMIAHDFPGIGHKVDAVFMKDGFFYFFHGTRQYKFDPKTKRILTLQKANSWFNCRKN
Briefly: biochemical. In kind it is tissue-based, Rheumatoid synovial fibroblasts.

The target of data set [4] is T2, 5-hydroxytryptamine receptor 1A (Rattus norvegicus, UniProt P19327). Note: in other assays of this panel Not Active means under 50% inhibition at 10 µM.
T2 sequence (P19327 whole entry): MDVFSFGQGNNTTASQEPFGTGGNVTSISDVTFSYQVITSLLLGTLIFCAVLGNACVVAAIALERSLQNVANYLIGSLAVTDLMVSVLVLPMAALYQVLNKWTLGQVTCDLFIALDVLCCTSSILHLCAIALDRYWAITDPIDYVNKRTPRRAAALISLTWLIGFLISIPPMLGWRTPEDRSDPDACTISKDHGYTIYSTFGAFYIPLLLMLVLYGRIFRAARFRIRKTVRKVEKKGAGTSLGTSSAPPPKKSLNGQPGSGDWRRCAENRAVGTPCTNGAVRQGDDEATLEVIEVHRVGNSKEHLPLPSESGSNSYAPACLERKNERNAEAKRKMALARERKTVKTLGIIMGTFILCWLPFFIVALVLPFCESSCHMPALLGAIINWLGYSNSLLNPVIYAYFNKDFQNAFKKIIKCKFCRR
In kind it is cell membranes, CHO-K1, Membrane. The note with it: for Ki: read-out: Ki.

A further data set has as its target Cytochrome P450 2E1 (Homo sapiens, UniProt P05181). The following applies: bti-tn-5b1-4.

These results are taken from ChEMBL document CHEMBL1909046, “DrugMatrix in vitro pharmacology data”.

Sequence of C-C chemokine receptor type 2 (P41597 whole entry): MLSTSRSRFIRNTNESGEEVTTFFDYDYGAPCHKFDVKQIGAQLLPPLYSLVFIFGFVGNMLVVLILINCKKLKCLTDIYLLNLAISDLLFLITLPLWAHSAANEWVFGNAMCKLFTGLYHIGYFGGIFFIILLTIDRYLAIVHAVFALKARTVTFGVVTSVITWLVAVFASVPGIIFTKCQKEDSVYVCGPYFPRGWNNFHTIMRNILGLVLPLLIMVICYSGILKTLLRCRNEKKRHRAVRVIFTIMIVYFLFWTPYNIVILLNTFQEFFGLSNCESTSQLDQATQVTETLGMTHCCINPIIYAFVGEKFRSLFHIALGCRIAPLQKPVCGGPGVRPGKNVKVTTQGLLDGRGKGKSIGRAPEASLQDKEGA
Sequence of 5-hydroxytryptamine receptor 2B (P41595 whole entry): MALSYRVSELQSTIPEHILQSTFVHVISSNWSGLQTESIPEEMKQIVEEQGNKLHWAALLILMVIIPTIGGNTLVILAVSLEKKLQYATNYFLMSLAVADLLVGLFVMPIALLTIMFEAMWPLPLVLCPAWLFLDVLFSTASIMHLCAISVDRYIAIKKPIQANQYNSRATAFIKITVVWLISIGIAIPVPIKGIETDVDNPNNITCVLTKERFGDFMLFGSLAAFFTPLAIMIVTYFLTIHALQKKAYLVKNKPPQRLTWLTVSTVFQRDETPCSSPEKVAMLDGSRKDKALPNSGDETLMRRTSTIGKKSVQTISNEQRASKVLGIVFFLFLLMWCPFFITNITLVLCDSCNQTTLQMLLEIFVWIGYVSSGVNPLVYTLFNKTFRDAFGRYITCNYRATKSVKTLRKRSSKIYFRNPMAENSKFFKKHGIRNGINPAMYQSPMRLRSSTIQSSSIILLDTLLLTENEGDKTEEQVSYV
Sequence of Cytochrome P450 2E1 (P05181 whole entry): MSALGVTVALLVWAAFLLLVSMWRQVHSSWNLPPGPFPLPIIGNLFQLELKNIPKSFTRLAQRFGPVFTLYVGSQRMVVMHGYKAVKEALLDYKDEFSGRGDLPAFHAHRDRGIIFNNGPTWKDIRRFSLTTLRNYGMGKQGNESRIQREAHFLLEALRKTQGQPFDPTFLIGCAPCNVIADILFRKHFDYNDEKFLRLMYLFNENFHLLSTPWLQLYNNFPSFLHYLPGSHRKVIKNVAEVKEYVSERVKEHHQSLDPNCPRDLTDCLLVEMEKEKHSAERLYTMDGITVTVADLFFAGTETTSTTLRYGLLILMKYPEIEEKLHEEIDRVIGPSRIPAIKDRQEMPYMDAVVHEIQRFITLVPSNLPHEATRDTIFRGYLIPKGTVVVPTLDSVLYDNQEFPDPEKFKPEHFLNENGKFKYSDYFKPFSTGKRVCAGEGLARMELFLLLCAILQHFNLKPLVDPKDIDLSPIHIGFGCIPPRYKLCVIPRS

`Cc1c(C)c2c(c(C)c1O)CCC(C)(COc1ccc(CC3SC(=O)NC3=O)cc1)O2` (stereo unspecified) [TROGLITAZONE]: the IC50 (in general, the concentration at which inhibition is half-maximal) in data set [1] (read-out: IC50) was 1310 nM; in data set [2] (cho-k1), “Not Active”; in data set [3], “Not Active”; at Interstitial collagenase, “Not Active”; in data set [4] (cho-k1) it was “Not Active”; at Cytochrome P450 2E1 it was “Not Active”. Further, the Ki (in general, the equilibrium dissociation constant of an inhibitor or competing ligand from its target) in data set [1] was 835 nM; in data set [3], “Not Active”; at Cytochrome P450 2E1, “Not Active”.

`c1ccc([C@H]2CN3CCSC3=N2)cc1` [LEVAMISOLE]: the 50% inhibitory concentration (IC50) entry (in data set [1] (cho-k1); in data set [2] (cho-k1); in data set [3]; against Interstitial collagenase; in data set [4] (cho-k1); against Cytochrome P450 2E1) was “Not Active” throughout. Also, the Ki entry (in data set [3]; on Cytochrome P450 2E1) was “Not Active” in each case.

Take `CC[C@]1(O)C[C@H]2CN(CCc3c([nH]c4ccccc34)[C@@](C(=O)OC)(c3cc4c(cc3OC)N(C=O)[C@H]3[C@@](O)(C(=O)OC)[C@H](OC(C)=O)[C@]5(CC)C=CCN6CC[C@]43[C@@H]65)C2)C1` [VINCRISTINE]: the IC50 entry (in data set [1] (cho-k1); in data set [2] (cho-k1); in data set [3]; against Interstitial collagenase; in data set [4] (cho-k1); on Cytochrome P450 2E1) was “Not Active” in each case. Moreover, the Ki entry (in data set [3]; at Cytochrome P450 2E1) was “Not Active” throughout.

Take `O=c1ncn2nc(Sc3ccc(F)cc3F)ccc2c1-c1c(Cl)cccc1Cl` [NEFLAMAPIMOD]: the IC50 result (in data set [1] (cho-k1); in data set [2] (cho-k1); in data set [3]; against Interstitial collagenase; in data set [4] (cho-k1); against Cytochrome P450 2E1) was “Not Active” each time. Moreover, the Ki entry (in data set [3]; at Cytochrome P450 2E1) was “Not Active” each time.

Regarding `CC/C(=C(\c1ccccc1)c1ccc(OCCN(C)C)cc1)c1ccccc1` [TAMOXIFEN], the IC50 in data set [1] (read-out: IC50) was 2080 nM; in data set [2] (cho-k1), “Not Active”; at Interstitial collagenase it was “Not Active”; in data set [4] (read-out: IC50) it was 12200 nM; against Cytochrome P450 2E1, “Not Active”. Moreover, the values for the Ki (in data set [1]; in data set [4]; on Cytochrome P450 2E1) were 1330 nM, 6950 nM and “Not Active”, respectively.

In the case of `Nc1nc2ccc(OC(F)(F)F)cc2s1` [RILUZOLE], the IC50 result (in data set [1] (cho-k1); in data set [2] (cho-k1); in data set [3]; against Interstitial collagenase; in data set [4] (cho-k1)) was “Not Active” each time. Moreover, the Ki entry in data set [3] is listed as “Not Active”.

For the compound `CN1CCN(CCCN2c3ccccc3Sc3ccc(Cl)cc32)CC1` [PROCHLORPERAZINE], the IC50 result in data set [2] (cho-k1) is “Not Active”; at Interstitial collagenase, “Not Active”; in data set [4] (read-out: IC50), 950 nM; on Cytochrome P450 2E1, “Not Active”. Moreover, the Ki in data set [4] was 543 nM; on Cytochrome P450 2E1 it was “Not Active”.

With `CCOC(=O)N1CCC(=C2c3ccc(Cl)cc3CCc3cccnc32)CC1` [LORATADINE], the IC50 entry (in data set [2] (cho-k1); in data set [3]; against Interstitial collagenase; in data set [4] (cho-k1); at Cytochrome P450 2E1) was “Not Active” each time. The Ki entry (in data set [3]; on Cytochrome P450 2E1) was “Not Active” throughout.

Consider `Cc1nc2n(c(=O)c1CCN1CCC(c3noc4cc(F)ccc34)CC1)CCCC2` [RISPERIDONE], for which the IC50 result (in data set [2] (cho-k1); on Interstitial collagenase; at Cytochrome P450 2E1) was “Not Active” each time. Moreover, the Ki entry on Cytochrome P450 2E1 is “Not Active”.

Regarding `CCCCc1oc2ccccc2c1C(=O)c1cc(I)c(OCCN(CC)CC)c(I)c1` [AMIODARONE], the IC50 in data set [2] (read-out: IC50) is 11100 nM; on Interstitial collagenase, “Not Active”; in data set [4] (cho-k1), “Not Active”; at Cytochrome P450 2E1 it was “Not Active”. In addition, the Ki in data set [2] (read-out: Ki) was 4280 nM; on Cytochrome P450 2E1, “Not Active”.

Turning to `N[C@@H](Cc1cc(I)c(Oc2ccc(O)c(I)c2)c(I)c1)C(=O)O` [LIOTHYRONINE], the IC50 entry (in data set [1] (cho-k1); in data set [2] (cho-k1); against Interstitial collagenase; in data set [4] (cho-k1); against Cytochrome P450 2E1) was “Not Active” in each case. In addition, on Cytochrome P450 2E1, the Ki entry is “Not Active”.
